Patent US4175081A, “5-Substituted thiadiazole ureas” (priority 1977, dated 1979)

What was measured:
[1] = system: Crabgrass (CG); assay: Pre-emergence herbicide test; type: in vivo, Digitaria sanquinalis; conditions: Digitaria sanguinalis, pre-emergence, 336 h; 8 lb/acre; two weeks after treatment
Outline: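 Crabgrass (Digitaria sanquinalis) was surface seeded in 3' plastic pots of potting soil, covered with screened soil, and watered by sub-irrigation in greenhouse trays. Pots were seeded one day before spraying in a hood with a moving belt and fixed nozzle. Plants stayed in the greenhouse on sub-irrigation, and pre-emergence control was rated visually two weeks after treatment.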

[2] = system: Yellow foxtail grass (YF); assay: Pre-emergence herbicide test; type: in vivo, Setaria glauca; conditions: Setaria, 336 h, 8 lb/acre, two weeks after treatment
Outline: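 Seeds surface-sown in potting soil one day before spraying; compounds applied pre-emergence at 8 or 4 lbs/acre in 38 gallons/acre spray. Pots held in greenhouse with sub-irrigation only. Injury or control rated visually two weeks after treatment.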

[3] = system: Johnson grass (JG); assay: Pre-emergence herbicide test; type: in vivo, Sorgum helepense; conditions: Sorghum halepense, 336 h, 8 lb/acre, two weeks after treatment
Outline: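 Pots seeded one day before spraying; compound applied pre-emergence at 8 lbs/acre (or 4 lbs/acre) in 38 gallons/acre spray volume. Sub-irrigated in greenhouse; injury/control rated visually two weeks after treatment.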

[4] = system: Barnyard grass (BG); assay: Pre-emergence herbicide test; type: in vivo; conditions: Echinochloa crus-galli, 336 h, 8 lb/acre, two weeks after treatment
Outline: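 Barnyard grass surface-seeded in potting soil and sprayed pre-emergence one day after seeding, at 8 or 4 lb compound/acre in 38 gal/acre spray volume. Pots kept in greenhouse with sub-irrigation only; injury or control rated visually two weeks after treatment.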

[5] = system: Amaranth pigweed (PW); assay: Pre-emergence herbicide test; type: in vivo, Amaranthus retroflexus; conditions: 336 h, 8 lb/acre, two weeks after treatment
Outline: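 Pigweed was surface-seeded in potted soil one day before spraying at 8 lbs compound per acre, or 4 lbs/acre, in 38 gallons per acre. Pots were kept in the greenhouse with sub-irrigation only; injury or control was rated visually two weeks after treatment.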

[6] = system: Turnip (TP); assay: Pre-emergence herbicide test; type: in vivo, Brassica sp.; conditions: Brassica rapa, pre-emergence, 336 h; 8 lb/acre; two weeks after treatment
Outline: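 Turnip (Brassica sp.) seeds were surface sown in 3' plastic pots of potting soil, covered with a thin layer of screened soil, and sub-irrigated in greenhouse trays. Pots were seeded one day ahead of treatment, sprayed pre-emergence under a hood with a fixed nozzle and moving belt, then kept in the greenhouse.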

[7] = system: Cotton (CT); assay: Pre-emergence herbicide test; type: in vivo, Gossypium hirsutum var. DPL smooth leaf; conditions: Gossypium hirsutum, 336 h, 8 lb/acre, two weeks after treatment
Outline: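 Crop and weed species seeded one day before treatment, then sprayed pre-emergence at 8 lbs actual compound per acre (also 4 lbs/acre formulations) in 38 gallons per acre. Pots kept in greenhouse with sub-irrigation only; injury or control visually rated two weeks after treatment.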

[8] = system: Corn (CN); assay: Pre-emergence herbicide test; type: in vivo; conditions: Zea mays, 336 h, 8 lb/acre, two weeks after treatment
Outline: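 Four corn seeds per pot, sown at seed-diameter depth one day before spraying, got soil surface treatment at 8 lbs/acre (4 lbs/acre formulations also prepared) in 38 gallons/acre. Pots were greenhouse-held with sub-irrigation only. Injury or control was scored visually two weeks after treatment.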

[9] = system: Bean (BN); assay: Pre-emergence herbicide test; type: in vivo, Phaseolus vulgaris var. Black Valentine; conditions: Phaseolus vulgaris, 336 h, 8 lb/acre, two weeks after treatment
Outline: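 Black Valentine bean was seeded in potting soil one day before spraying. Compound was applied pre-emergence at 8 lbs/acre (also 4 lbs/acre) in 38 gallons per acre. Plants were sub-irrigated and injury or control was rated visually after two weeks.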

[10] = system: Crabgrass (CG); assay: Post-emergence herbicide test; type: in vivo, Digitaria sanquinalis; conditions: Digitaria sanguinalis, post-emergence, 336 h; 8 lb/acre; two weeks after treatment
Outline: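 Crabgrass (Digitaria sanquinalis) was surface seeded individually in 3' plastic pots of potting soil, covered with screened soil, and watered by sub-irrigation in greenhouse trays. Planting was staggered so seedlings reached the target stage together. Post-emergence sprays were applied in a hood with a removable belt and fixed nozzle, and control was visually rated two weeks after treatment.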

[11] = system: Yellow foxtail grass (YF); assay: Post-emergence herbicide test; type: in vivo, Setaria glauca; conditions: Setaria, 336 h, 8 lb/acre, two weeks after treatment
Outline: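 Potted seedlings grown in greenhouse, planting staggered to reach the target stage together, then sprayed post-emergence at 8 lbs actual compound/acre in 38 gallons/acre (4 lbs/acre formulations also prepared). Sub-irrigated afterwards. Injury or control rated visually two weeks after treatment.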

[12] = system: Johnson grass (JG); assay: Post-emergence herbicide test; type: in vivo, Sorgum helepense; conditions: Sorghum halepense, 336 h, 8 lb/acre, two weeks after treatment
Outline: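 Greenhouse pot-grown seedlings sprayed post-emergence at 8 lbs compound per acre (some at 4 lbs/acre) in 38 gallons per acre spray volume. Sub-irrigated thereafter. Injury/control rated visually two weeks after treatment.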

[13] = system: Barnyard grass (BG); assay: Post-emergence herbicide test; type: in vivo; conditions: Echinochloa crus-galli, 336 h, 8 lb/acre, two weeks after treatment
Outline: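 Greenhouse pot-grown barnyard grass seedlings sprayed post-emergence at 8 lbs active compound per acre (some at 4 lbs/acre) in 38 gallons per acre, then sub-irrigated. Injury or control rated visually two weeks after treatment.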

[14] = system: Amaranth pigweed (PW); assay: Post-emergence herbicide test; type: in vivo, Amaranthus retroflexus; conditions: 336 h, 8 lb/acre, two weeks after treatment
Outline: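 Pot-grown pigweed was sprayed post-emergence at the 1–2 true-leaf stage with compound at rates equivalent to 8 lbs per acre (formulations also prepared for 4 lbs/acre) in 38 gallons per acre, using a hood with fixed nozzle. Plants were sub-irrigated in the greenhouse, and injury or control was rated visually two weeks after treatment.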

[15] = system: Turnip (TP); assay: Post-emergence herbicide test; type: in vivo, Brassica sp.; conditions: Brassica rapa, post-emergence, 336 h; 8 lb/acre; two weeks after treatment
Outline: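 A greenhouse post-emergence herbicide test on turnip. Seeds were sown on the surface of potting soil in 3' plastic pots, lightly covered with screened soil and watered from below. Planting was timed so seedlings had 1 or 2 true leaves above the cotyledons at spraying, done in a hood with a fixed nozzle. Control or injury was scored by eye after two weeks.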

[16] = system: Cotton (CT); assay: Post-emergence herbicide test; type: in vivo, Gossypium hirsutum var. DPL smooth leaf; conditions: Gossypium hirsutum, post-emergence, 336 h; 8 lb/acre; two weeks after treatment
Outline: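 Cotton (Gossypium hirsutum var. DPL smooth leaf) was grown in 3' plastic pots of potting soil, four seeds per pot, planted at a depth equal to the seed diameter and watered by sub-irrigation. At the stage of expanded cotyledons with the first true leaf 1' long, plants were sprayed post-emergence in a hood with a fixed nozzle over a moving belt. Percent control was rated visually two weeks later.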

[17] = system: Corn (CN); assay: Post-emergence herbicide test; type: in vivo; conditions: Zea mays, 336 h, 8 lb/acre, two weeks after treatment
Outline: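 Greenhouse seedlings grown in potting soil and sprayed post-emergence at 8 lbs compound/acre (formulations also made for 4 lbs/acre) in 38 gallons/acre spray volume. Watering by sub-irrigation only. Injury or control rated visually two weeks after treatment.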

[18] = system: Bean (BN); assay: Post-emergence herbicide test; type: in vivo, Phaseolus vulgaris var. Black Valentine; conditions: Phaseolus vulgaris, post-emergence, 336 h; 8 lb/acre; two weeks after treatment
Outline: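 Snapbean (Phaseolus vulgaris var. Black Valentine) was tested post-emergence. Four seeds were sown in 3' plastic pots of potting soil at a depth equal to the seed diameter, then sub-irrigated in greenhouse trays. Planting dates were staggered so plants were sprayed once primary leaves had expanded, with the growing point at the primary leaf nodes.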

[19] = system: variety of crops and weed species; assay: Pre- and post-emergence herbicide tests, overall assessment of Tables III-VI; type: in vivo; conditions: data of Tables III-VI
Outline: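 Crops and weeds grown in potting soil were sprayed at 8 lbs. compound per acre in 38 gallons per acre, pre-emergence pots seeded one day before treatment. Injury or control was visually rated two weeks after treatment.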

Row | SMILES | pest or weed control at 8966.8 g/ha [1] [%] | pest or weed control at 8966.8 g/ha [2] [%] | pest or weed control at 8966.8 g/ha [3] [%] | pest or weed control at 8966.8 g/ha [4] [%] | pest or weed control at 8966.8 g/ha [5] [%] | pest or weed control at 8966.8 g/ha [6] [%] | pest or weed control at 8966.8 g/ha [7] [%] | pest or weed control at 8966.8 g/ha [8] [%] | pest or weed control at 8966.8 g/ha [9] [%] | pest or weed control at 8966.8 g/ha [10] [%] | pest or weed control at 8966.8 g/ha [11] [%] | pest or weed control at 8966.8 g/ha [12] [%] | pest or weed control at 8966.8 g/ha [13] [%] | pest or weed control at 8966.8 g/ha [14] [%] | pest or weed control at 8966.8 g/ha [15] [%] | pest or weed control at 8966.8 g/ha [16] [%] | pest or weed control at 8966.8 g/ha [17] [%] | pest or weed control at 8966.8 g/ha [18] [%] | herbicidal effectiveness / selectivity, in words [19]
1 | C=CCNC(=O)Nc1nnc(C(F)(F)F)s1 [Example 12] | 20 | 10 | 10 | 10 | 10 | 10 | 30 | 10 | 10 | 50 | 40 | 40 | 50 | 70 | 70 | 90 | 40 | 100 | control post-emergence growth, while have little effect in regard to pre-emergence
2 | CNC(=O)Nc1nnc(COC)s1 [Example 25] | 20 | 10 | 10 | 10 | 10 | 10 | 100 | 10 | 70 | 30 | 20 | 30 | 20 | 40 | 30 | 100 | 30 | 100 | more selective when applied to a certain crop or weed species
3 | CNC(=O)Nc1nncs1 [Example 35] | 10 | 10 | 10 | 10 | 10 | 10 | 100 | 10 | 60 | 10 | 10 | 10 | 10 | 100 | 20 | 50 | 10 | 30 | more selective when applied to a certain crop or weed species
